Reference: ChEMBL document CHEMBL3044830, “Synthesis, characterization, antibacterial, antifungal, and immunomodulating activities of gatifloxacin derivatives” (Med Chem Res, 2010)

What was measured:
Pseudomonas aeruginosa = assay: Antibacterial activity against Pseudomonas aeruginosa assessed as concentration required to obtain a zone of inhibition of 10 mm after 18 to 24 hr by disk diffusion method; assay type: functional
Fusarium solani = assay: Antifungal activity against Fusarium solani assessed as concentration required to obtain a zone of inhibition of 20 mm after 7 days by disk diffusion method; assay type: functional
Citrobacter [1] = assay: Antibacterial activity against Citrobacter assessed as concentration required to obtain a zone of inhibition of 20 mm after 18 to 24 hr by disk diffusion method; assay type: functional
Escherichia coli = assay: Antibacterial activity against Escherichia coli assessed as concentration required to obtain a zone of inhibition of 10 mm after 18 to 24 hr by disk diffusion method; assay type: functional
Proteus mirabilis [2] = assay: Antibacterial activity against Proteus mirabilis assessed as concentration required to obtain a zone of inhibition of 5 mm after 18 to 24 hr by disc diffusion method; assay type: functional
Trichophyton rubrum [3] = assay: Antifungal activity against Trichophyton rubrum assessed as zone of inhibition at 5 to 40 ug/ml after 7 days by disk diffusion method relative to gatifloxacin; assay type: functional
Proteus mirabilis [4] = assay: Antibacterial activity against Proteus mirabilis assessed as concentration required to obtain a zone of inhibition of 20 mm after 18 to 24 hr by disc diffusion method; assay type: functional
Shigella sp. [5] = assay: Antibacterial activity against Shigella typhi assessed as zone of inhibition after 18 to 24 hr by disc diffusion method relative to gatifloxacin; assay type: functional
T-cell = assay: Anti-inflammatory activity in Homo sapiens (human) T lymphocytes assessed as inhibition of PHA-induced [3H] thymidine uptake incubated for 72 hr prior to [3H]thymidine addition measured after 18 hr by liquid scintillation method; assay type: functional, cell-based
Bacillus subtilis = assay: Antibacterial activity against Bacillus subtilis assessed as concentration required to obtain a zone of inhibition of 5 mm after 18 to 24 hr by disk diffusion method; assay type: functional
[6] = Antibacterial activity against Hofmanni bacterium assessed as concentration required to obtain a zone of inhibition of 20 mm after 18 to 24 hr by disc diffusion method
Shigella flexneri [7] = assay: Antibacterial activity against Shigella flexneri assessed as concentration required to obtain a zone of inhibition of 20 mm after 18 to 24 hr by disk diffusion method; assay type: functional
Klebsiella pneumoniae = assay: Antibacterial activity against Klebsiella pneumoniae assessed as concentration required to obtain a zone of inhibition of 10 mm after 18 to 24 hr by disk diffusion method; assay type: functional
Blood = assay: Antioxidant activity in Homo sapiens (human) whole blood assessed as inhibition of ROS production at 100 ug/ml after 30 min by luminol-enhanced chemiluminescence assay; assay type: functional; conditions: 0.5 h
Citrobacter [8] = assay: Antibacterial activity against Citrobacter assessed as concentration required to obtain a zone of inhibition of 5 mm after 18 to 24 hr by disk diffusion method; assay type: functional
Shigella flexneri [9] = assay: Antibacterial activity against Shigella flexneri assessed as zone of inhibition at 5 to 40 ug/ml after 18 to 24 hr by disk diffusion method relative to gatifloxacin; assay type: functional
Trichophyton rubrum [10] = assay: Antifungal activity against Trichophyton rubrum assessed as concentration required to obtain a zone of inhibition of 20 mm after 7 days by disk diffusion method; assay type: functional
Shigella sp. [11] = assay: Antibacterial activity against Shigella typhi assessed as concentration required to obtain a zone of inhibition of 10 mm after 18 to 24 hr by disc diffusion method; assay type: functional

Structure (SMILES)	Activity (Pseudomonas aeruginosa)	Activity (Fusarium solani)	Activity (Citrobacter [1])	Activity (Escherichia coli)	Activity (Proteus mirabilis [2])	inhibition zone (IZ) (Trichophyton rubrum [3])	Activity (Proteus mirabilis [4])	inhibition zone (IZ) (Shigella sp. [5])	IC50 (T-cell)	Activity (Bacillus subtilis)	Activity [6]	Activity (Shigella flexneri [7])	Activity (Klebsiella pneumoniae)	inhibition at 100 µg/mL (Blood)	Activity (Citrobacter [8])	inhibition zone (IZ) (Shigella flexneri [9])	Activity (Trichophyton rubrum [10])	Activity (Shigella sp. [11])
CCCCCCCC(=O)N1CCN(c2c(F)cc3c(=O)c(C(=O)O)cn(C4CC4)c3c2OC)CC1C.O (configuration not stated)	10 µg/mL	14 µg/mL	15 µg/mL	10 µg/mL	11 µg/mL	127%	14 µg/mL	87.5%	> 50 µg/mL	10 µg/mL	14 µg/mL	20 µg/mL	14 µg/mL	96.1%	8 µg/mL	105%	16 µg/mL	–
COc1c(N2CCN(C(=O)c3ccccc3)C(C)C2)c(F)cc2c(=O)c(C(=O)O)cn(C3CC3)c12.O (configuration not stated)	12 µg/mL	17 µg/mL	12 µg/mL	16 µg/mL	9 µg/mL	185%	12 µg/mL	80.2%	> 50 µg/mL	12 µg/mL	14 µg/mL	14 µg/mL	14 µg/mL	15%	8 µg/mL	88.1%	21 µg/mL	9 µg/mL
COc1c(N2CCN(C(C)=O)C(C)C2)c(F)cc2c(=O)c(C(=O)O)cn(C3CC3)c12.O (configuration not stated)	17 µg/mL	13 µg/mL	24 µg/mL	17 µg/mL	9 µg/mL	239%	12 µg/mL	113%	> 50 µg/mL	11 µg/mL	16 µg/mL	24 µg/mL	23 µg/mL	-15.1%	17 µg/mL	151%	28 µg/mL	–
